# Laboratory results reported in US20120184590A1, “FORMULATIONS OF INDOLE-3-CARBINOL DERIVED ANTITUMOR AGENTS WITH INCREASED ORAL BIOAVAILABILITY” (UNIVERSITY OF KANSAS, priority 2009, published 2012).
# Values joined by “and” are separate entries in the source; they are usually repeats but may differ in a detail not shown here. Equal values may be shown once. Read-outs that look alike come from different tables or passages of the source. Marks after values point to notes of the source that are not given here.
# Key:
# [1] = Pharmacokinetics of SR13668 in dogs after i.v. and oral gavage dosing; format: in vivo, beagle dogs; conditions: for Fabs F/(1-ER): blood; for bioavailability: beagle (dogs), across all oral groups, dogs and monkeys; for Vd/F: read-out: VZ/F
# From the text: Four non-naïve male beagle dogs (approximately 3 years of age; Ridglan Farms Inc. Mt. Horeb, Wis.) and four non-naïve male cynomolgus monkeys [cynos (macaca fasicularis); approximately 7 to 8 years of age; Charles River Laboratories, Inc., Houston, Tex.] were used in this study. Prior to experimental initiation for the present study, the attending veterinarian certified that the animals were healthy and free from disease and parasites.
# For both species, each animal was part of each experimental group, with a 7-day interval between treatments to allow for washout of the dosing formulation and its effects. Dosing formulations of SR13668 were administered by oral gavage (intragastric) or intravenous (i.v.) injection as a single dose or once daily for seven consecutive days. Oral to doses were administered at a dosing volume of 5 mL/kg of body weight, while intravenous doses were administered at a dosing volume of 0.5 mL/kg of body weight. Dogs were dosed with 93.6 mg/m^2 SR13668 intravenously in DMSO:PEG300 15:85 (v/v) or orally in Solutol® vehicle (two groups, fed and after an overnight fast). Monkeys were dosed with 84.2 mg/m^2 SR13668 intravenously in DMSO:PEG300 15:85 (v/v) or orally (336.7 mg/m^2 SR13668 for the oral high dose group) in PEG400:Labrasol® 1:1 (v/v) or Solutol® vehicles. Vehicle control groups were used to assess the tolerability of the vehicle and for clinical pathology evaluations.
# Blood samples were collected from each animal at 10 time points (0, 0.25, 0.5, 1, 2, 4, 6, 8, 12 and 24 hours post-dose) during the first and last 24-hour segment of each dosing regimen. For single intravenous dose experiments, samples were collected during the 24-hour post-dose period only. Samples were transferred to Vacutainer tubes containing ethylenediaminetetraacetic acid (EDTA; Fisher Scientific, Pittsburgh, Pa.). The tubes were inverted several times to mix and then placed on ice until storage or centrifugation for plasma preparation. After centrifugation, the plasma was transferred into storage tubes (0.5 mL), which were placed on dry ice and then stored frozen (approximately −70° C.).
# Levels of SR13668 in plasma and blood were measured using a tandem mass to spectrometer (API 3000; Applied Biosystems/MDS Sciex, Foster City, Calif.) equipped with a high performance liquid chromatograph (Agilent 1200; Agilent Technologies, Wilmington, Del.). For SR13668 determination, a 100 μL blood or plasma aliquot was mixed with 1 mL of acetonitrile (ACN; Sigma-Aldrich, St. Louis, Mo.). After vortex-mixing for one minute, the sample was centrifuged at 4° C. and 7000 RPM for 10 minutes to remove precipitated proteins, and the supernatant was transferred to a clean tube and dried under nitrogen flow at room temperature (approximately 25° C.). After the evaporation was completed, the residue was reconstituted in 500 μL of ACN/water (v/v 70:30), and vortex-mixed and centrifuged again. An aliquot of the resulting supernatant was transferred to an autosampler tube for instrumental analysis.
# A freshly prepared SR13668 standard curve was analyzed along with samples on each day of analysis. The chromatographic column was a Luna 3μ C18(2) 110 Å 30×2.0 mm (Phenomenex, Torrance, Calif.). The column temperature was maintained at 25° C., and a flow rate of 0.30 mL/min was used. The mobile phase consisted of MPA: formic acid in water (0.05%, v/v) and MPB: formic acid in ACN (0.05%, v/v). The mobile phase gradient was as follows: after injection, initial conditions with MPA at 40% were held for 0.01 min, decreased to 5% and held constant for 3 min, returning to initial conditions for another 3 min of re-equilibration time. Retention time of SR13668 was approximately 2.4 min. Total run time was 6 min. A turbo ion spray interface was used as the ion source operating in negative ion mode. Acquisition was performed in multiple reaction monitoring mode using ions 429.15 (Q1) and 414.12 (Q3) Dalton. […]
# [2] = Oral bioavailability of PEG400:Labrasol formulation in rats; conditions: rat, in vivo
# [3] = Green C., unpublished results; cited from earlier work
# [4] = dogs, whole blood, 93.6 mg/m^2 (4.68 mg/kg) iv single dose, DMSO:PEG300 15:85 v/v, fed
# [5] = male, beagle, dog, plasma, iv, 4.68 mg/kg, dogs, plasma, 93.6 mg/m^2 (4.68 mg/kg) i.v. single dose, DMSO:PEG300 15:85 v/v, fed
# [6] = male, beagle, dog, plasma, po, 4.68 mg/kg, dogs, 93.6 mg/m^2 (4.68 mg/kg) oral gavage, Solutol, seventh daily dose, fasted
# [7] = male, beagle, dog, plasma, po, 4.68 mg/kg, dogs, 93.6 mg/m^2 (4.68 mg/kg) oral gavage, Solutol, seventh daily dose, fed
# [8] = male, beagle, dog, whole blood, iv, 4.68 mg/kg, dogs, whole blood, 93.6 mg/m^2 (4.68 mg/kg) iv single dose, DMSO:PEG300 15:85 v/v, fed
# [9] = male, beagle, dog, whole blood, po, 4.68 mg/kg, dogs, 93.6 mg/m^2 (4.68 mg/kg) oral gavage, Solutol, seventh daily dose, fasted
# [10] = male, beagle, dog, whole blood, po, 4.68 mg/kg, dogs, 93.6 mg/m^2 (4.68 mg/kg) oral gavage, Solutol, seventh daily dose, fed
smiles,measurement,setting,value
"CCOC(=O)c1ccc2[nH]c3c(OC)c4[nH]c5ccc(C(=O)OCC)cc5c4cc3c2c1 [SR13668, 2,10-dicarbethoxy-6-methoxy-5,7-dihydro-indolo-(2,3-b)carbazole]",CL,"[1]; dogs, blood clearance, 93.6 mg/m^2 (4.68 mg/kg) oral gavage, Solutol, fasted",30.0 mL/min/kg
same,CL,"[1]; dogs, blood clearance, 93.6 mg/m^2 (4.68 mg/kg) oral gavage, Solutol, fed",25.7 mL/min/kg
same,Fabs F/(1-ER),"[1]; dogs, 93.6 mg/m^2 (4.68 mg/kg) oral gavage, Solutol, fasted",16.5%
same,Fabs F/(1-ER),"[1]; dogs, 93.6 mg/m^2 (4.68 mg/kg) oral gavage, Solutol, fed",20.0%
same,F0-∞,"[1]; dogs, plasma, 93.6 mg/m^2 (4.68 mg/kg) i.v. single dose, DMSO:PEG300 15:85 v/v, fed",100%
same,F0-∞,"[1]; dogs, plasma, 93.6 mg/m^2 (4.68 mg/kg) oral gavage, Solutol, seventh daily dose, fasted",13.3 ± 4.0%
same,CL/F,[1]; [4],"0.244 ± 0.034^a,h L/hr/kg"
same,F0-∞,[1]; [4],100%
same,F0-∞,"[1]; dogs, whole blood, 93.6 mg/m^2 (4.68 mg/kg) oral gavage, Solutol, seventh daily dose, fasted",14.2 ± 4.5% and 14.2%
same,F0-∞,"[1]; dogs, whole blood, 93.6 mg/m^2 (4.68 mg/kg) oral gavage, Solutol, seventh daily dose, fed","17.2 ± 4.3^h,i % and 17.2%"
same,ER CLiv/Q,"[1]; dogs, iv blood clearance over hepatic blood flow 30.9 mL/min/kg",0.14
same,effect of fed or fasted condition on bioavailability,"[1]; dogs, oral gavage, Solutol",did not have an effect
same,bioavailability,"[1]; male, dog, plasma, read-out: plasma oral bioavailability, range",0.7 to 14.6%
same,bioavailability,"[1]; male, dog, whole blood, read-out: blood oral bioavailability, range",1.1 to 17.2%
same,AUC(0-inf),[1]; [5],8400 ± 1190 ng·h/mL
same,Cmax,[1]; [5],2360 ± 573 ng/mL
same,MRT,[1]; [5],6.3 ± 0.6 h
same,Tmax,[1]; [5],0.25 h
same,half-life,[1]; [5],5 ± 0.2 h
same,CL/F,"[1]; male, beagle, dog, plasma, po, 4.68 mg/kg, dogs, plasma, 93.6 mg/m^2 (4.68 mg/kg) oral gavage, Solutol, seventh daily dose, fasted, read-out: CL/F (converted)",76.3 mL/min/kg
same,Vd/F,"[1]; male, beagle, dog, plasma, po, 4.68 mg/kg, dogs, plasma, 93.6 mg/m^2 (4.68 mg/kg) oral gavage, Solutol, seventh daily dose, fasted",64 ± 24 L/kg
same,CL/F,"[1]; male, beagle, dog, plasma, po, 4.68 mg/kg, dogs, plasma, 93.6 mg/m^2 (4.68 mg/kg) oral gavage, Solutol, seventh daily dose, fed, read-out: CL/F (converted)",69.7 mL/min/kg
same,Vd/F,"[1]; male, beagle, dog, plasma, po, 4.68 mg/kg, dogs, plasma, 93.6 mg/m^2 (4.68 mg/kg) oral gavage, Solutol, seventh daily dose, fed",32.4 ± 9.6 L/kg
same,AUC(0-inf),[1]; [6],1100 ± 339 ng·h/mL
same,Cmax,[1]; [6],113 ± 58 ng/mL
same,MRT,[1]; [6],12.8 ± 4.2 h
same,Tmax,[1]; [6],2.8 ± 1.5 h
same,half-life,[1]; [6],9.7 ± 2.4 h
same,AUC(0-inf),[1]; [7],1240 ± 414 ng·h/mL
same,Cmax,[1]; [7],207 ± 48 ng/mL
same,MRT,[1]; [7],7.1 ± 1.1 h
same,Tmax,[1]; [7],1.8 ± 0.5 h
same,half-life,[1]; [7],5.6 ± 1.4 h
same,AUC(0-inf),[1]; [8],19500 ± 3160 ng·h/mL
same,Cmax,[1]; [8],5220 ± 742 ng/mL
same,MRT,[1]; [8],6.7 ± 0.6 h
same,Tmax,[1]; [8],0.25 h
same,half-life,[1]; [8],5 ± 0.1 h
same,CL/F,"[1]; male, beagle, dog, whole blood, po, 4.68 mg/kg, dogs, whole blood, 93.6 mg/m^2 (4.68 mg/kg) oral gavage, Solutol, seventh daily dose, fasted, read-out: CL/F (converted)",30 mL/min/kg
same,Vd/F,"[1]; male, beagle, dog, whole blood, po, 4.68 mg/kg, dogs, whole blood, 93.6 mg/m^2 (4.68 mg/kg) oral gavage, Solutol, seventh daily dose, fasted",18.6 ± 7.5 L/kg
same,CL/F,"[1]; male, beagle, dog, whole blood, po, 4.68 mg/kg, dogs, whole blood, 93.6 mg/m^2 (4.68 mg/kg) oral gavage, Solutol, seventh daily dose, fed, read-out: CL/F (converted)",25.7 mL/min/kg
same,Vd/F,"[1]; male, beagle, dog, whole blood, po, 4.68 mg/kg, dogs, whole blood, 93.6 mg/m^2 (4.68 mg/kg) oral gavage, Solutol, seventh daily dose, fed",12.8 ± 4.8 L/kg
same,AUC(0-inf),[1]; [9],2680 ± 577 ng·h/mL
same,Cmax,[1]; [9],277 ± 87 ng/mL
same,MRT,[1]; [9],10.9 ± 3.1 h
same,Tmax,[1]; [9],2.8 ± 1.5 h
same,half-life,[1]; [9],7 ± 1.8 h
same,AUC(0-inf),[1]; [10],3410 ± 1290 ng·h/mL
same,Cmax,[1]; [10],575 ± 152 ng/mL
same,MRT,[1]; [10],7.2 ± 0.9 h
same,Tmax,[1]; [10],1.8 ± 0.5 h
same,half-life,[1]; [10],5.9 ± 1.5 h
same,clearance,"[1]; male, beagle, dog, whole blood, dogs, blood clearance, 93.6 mg/m^2 (4.68 mg/kg) iv, DMSO:PEG300 15:85 v/v, fed",4.07 mL/min/kg
same,bioavailability,[2],< 1%
same,metabolism in rat microsomes,[3],slow metabolism
